One assay has as its target TRPV1 (Homo sapiens, UniProt Q8NER1). As to conditions: cited from earlier work.
The next assay concerns the target TRPM8 (Homo sapiens, UniProt Q7Z2W7). Particulars: cited from earlier work.
For another assay, the target named is TRPA1 (Homo sapiens, UniProt O75762). As to conditions: cited from earlier work.
The next assay has as its target T1, TRPV3 (Homo sapiens, UniProt Q8NET8).
T1 sequence (Q8NET8 1-790): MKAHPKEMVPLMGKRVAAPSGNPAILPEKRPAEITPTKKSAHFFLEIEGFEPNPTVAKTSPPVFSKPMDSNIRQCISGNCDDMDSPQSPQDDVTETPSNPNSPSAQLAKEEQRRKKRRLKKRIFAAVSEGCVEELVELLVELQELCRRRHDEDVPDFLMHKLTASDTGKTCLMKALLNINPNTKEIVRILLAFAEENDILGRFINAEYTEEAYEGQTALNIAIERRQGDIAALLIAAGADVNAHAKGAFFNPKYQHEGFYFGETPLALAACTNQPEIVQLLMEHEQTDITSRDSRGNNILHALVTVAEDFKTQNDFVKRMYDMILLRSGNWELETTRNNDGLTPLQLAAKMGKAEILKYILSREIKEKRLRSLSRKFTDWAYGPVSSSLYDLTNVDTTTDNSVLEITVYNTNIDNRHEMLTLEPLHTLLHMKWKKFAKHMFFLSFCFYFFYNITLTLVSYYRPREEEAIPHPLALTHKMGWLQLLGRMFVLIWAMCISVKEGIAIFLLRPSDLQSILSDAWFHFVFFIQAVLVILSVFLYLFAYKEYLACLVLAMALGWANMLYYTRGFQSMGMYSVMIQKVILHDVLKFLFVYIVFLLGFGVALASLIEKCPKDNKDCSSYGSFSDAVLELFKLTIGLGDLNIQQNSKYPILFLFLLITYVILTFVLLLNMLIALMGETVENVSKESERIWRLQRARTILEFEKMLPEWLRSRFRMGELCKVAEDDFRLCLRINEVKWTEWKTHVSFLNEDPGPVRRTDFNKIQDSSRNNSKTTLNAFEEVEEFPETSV
Particulars: cited from earlier work.

For assay [1], the system named is rumen epithelium from cattle. The experiment in a line: Ussing chamber: ammonium-induced transepithelial short-circuit current (Isc) across isolated rumen epithelium. In kind it is cell-based. Particulars: for influence on ammonium-induced conductivity / transport across rumen epithelium (profile in words): no concentration stated. From the text:
The experiments on the intact epithelium take place as already specified (Abdoun, Stumpff et al. 2005; Abdoun, Stumpff et al. 2010). The measuring techniques used are a combination of the Ussing chamber technique developed by Ussing (1949) and the microelectrode technique.
When examining epithelial transport processes with the Ussing chamber, the epithelium is installed in a special chamber, which makes it possible to rinse the two sides of the epithelium (apical: food side; basolateral: blood side) separately of each other with buffer solutions of various composition, wherein the electrophysiological parameters (current and voltage) across the epithelium are traced. Hereby, it is made possible to differentiate between the transport of an uncharged substance (e.g. ammonia, NH3) and the transport of a charged substance (e.g. ammonium, NH4^+), as the former takes place without a change in current and voltage, whereas the latter is coupled with the transfer of a charge and thus changes the transepithelial electrical parameters.
With the help of a special modification, the reaction of individual epithelia to solution changes, taking place very rapidly and smoothly, is also examined over time. Hereby, for example, the reproducibility of a pharmacological intervention on the same piece of epithelium can very well be examined. This modification of the classic Ussing chamber technique is particularly, albeit not exclusively, used for the comparative “screening” of the various substances which are subject of an aspect of the present invention.
The epithelium is horizontally clamped into a modified Ussing chamber, wherein the mucosal side faces upwards. The chamber made of plexi-glass has a cross-section surface of 0.79 cm^2, which is corrected to 1 cm^2. As a protection against damages on the edges of the epithelium, “edge damage”, a silicone ring is in each case placed between chamber and epithelium. The two resulting chambers (mucosal and serosal) are each supplied by their own perfusion system (4-channel-stand-pump, Ismatec SA). With three-way valves, an independent solution change between altogether eight solutions is possible in the two chambers. During storage, the solutions are gassed in their containers with 100% O2. To warm the solutions up to 37° C., the thin perfusion tubes run through a heat exchanger pump. The suction device (Masterflex R/S, Cole Parmer Instrument Company) present in both chambers guarantees a rapid and safe change of solution. In order to ensure that there are no solution change artefacts when adding agonists and antagonists, the substances are pipetted into the respective solution, wherein the gassing ensures a rapid mixing. In this way, pressure fluctuations or an interruption of the flow through the chamber can be safely precluded.
As in the conventional Ussing chamber technique, there are in each case two electrodes near the tissue and two electrodes distant from the tissue for measuring the transepithelial potential difference and the transepithelial current (Isc). The connections between the Ag/AgCl electrodes, which are filled with 3 M KCl, are established via agar bridges. Just as in Strecker (Strecker 2011), the measuring chamber is connected to a “voltage clamp” installation (Ussing chamber unit) in assembly with a microelectrode amplifier (both Biomedical Instruments Co., Germering). A micromanipulator (MF 500) installed above the measuring chamber offers the possibility to move the microelectrode in fine μm steps. Additionally, a microscope as well as a cold-light source are located above the apparatus.
Menthol (Sigma-Aldrich) was dissolved at a concentration of 1 mol·l^−1 in ethanol and pipetted into the used test solution containing ammonium. For an end concentration of 1 mmol·l^−1, 20 μl of this stock solution was added to 20 ml test solution; for 200 μmol·l^−1 correspondingly less. In control experiments, corresponding amounts of pure ethanol were added to the test solution.

The source of these data is patent US9693971B2, “Compositions for alleviating gastrointestinal tract disorders or associated systemic disorders in ruminants and camelids” (FREIE UNIVERSITÄT BERLIN, priority 2012, dated 2017).

“Also recorded” adds a separate entry of the source. Like-named read-outs stand apart in the source and are kept apart here.

Chain of TRPM8 (Q7Z2W7 whole entry, species assumed): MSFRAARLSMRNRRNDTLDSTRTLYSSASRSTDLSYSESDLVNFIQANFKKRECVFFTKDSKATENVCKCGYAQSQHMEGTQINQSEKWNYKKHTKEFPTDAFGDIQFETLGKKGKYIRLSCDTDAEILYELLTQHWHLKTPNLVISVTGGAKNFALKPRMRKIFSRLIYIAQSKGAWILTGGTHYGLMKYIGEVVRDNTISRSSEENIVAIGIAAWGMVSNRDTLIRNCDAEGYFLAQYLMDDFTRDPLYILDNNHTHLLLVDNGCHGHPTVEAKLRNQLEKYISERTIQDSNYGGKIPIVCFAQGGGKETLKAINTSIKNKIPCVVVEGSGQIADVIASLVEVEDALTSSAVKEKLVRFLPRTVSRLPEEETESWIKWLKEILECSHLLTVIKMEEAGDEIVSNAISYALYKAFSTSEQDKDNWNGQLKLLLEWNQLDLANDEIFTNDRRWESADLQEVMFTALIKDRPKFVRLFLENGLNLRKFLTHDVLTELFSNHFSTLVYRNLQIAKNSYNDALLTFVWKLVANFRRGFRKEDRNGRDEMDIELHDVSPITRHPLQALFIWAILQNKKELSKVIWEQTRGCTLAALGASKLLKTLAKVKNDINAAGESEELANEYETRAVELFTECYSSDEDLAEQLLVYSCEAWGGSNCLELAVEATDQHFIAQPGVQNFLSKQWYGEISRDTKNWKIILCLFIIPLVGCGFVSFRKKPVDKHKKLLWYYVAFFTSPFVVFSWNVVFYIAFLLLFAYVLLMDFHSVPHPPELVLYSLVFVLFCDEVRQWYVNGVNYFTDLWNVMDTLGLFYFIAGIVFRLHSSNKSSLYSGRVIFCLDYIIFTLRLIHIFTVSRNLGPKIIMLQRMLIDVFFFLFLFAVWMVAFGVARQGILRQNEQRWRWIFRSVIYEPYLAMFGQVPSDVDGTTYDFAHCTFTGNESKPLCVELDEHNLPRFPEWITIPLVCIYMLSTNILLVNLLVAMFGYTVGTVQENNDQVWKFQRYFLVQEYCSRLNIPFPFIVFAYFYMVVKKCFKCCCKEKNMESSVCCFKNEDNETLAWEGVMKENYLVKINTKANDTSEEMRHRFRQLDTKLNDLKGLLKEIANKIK
Chain of TRPV1 (Q8NER1 whole entry, species assumed): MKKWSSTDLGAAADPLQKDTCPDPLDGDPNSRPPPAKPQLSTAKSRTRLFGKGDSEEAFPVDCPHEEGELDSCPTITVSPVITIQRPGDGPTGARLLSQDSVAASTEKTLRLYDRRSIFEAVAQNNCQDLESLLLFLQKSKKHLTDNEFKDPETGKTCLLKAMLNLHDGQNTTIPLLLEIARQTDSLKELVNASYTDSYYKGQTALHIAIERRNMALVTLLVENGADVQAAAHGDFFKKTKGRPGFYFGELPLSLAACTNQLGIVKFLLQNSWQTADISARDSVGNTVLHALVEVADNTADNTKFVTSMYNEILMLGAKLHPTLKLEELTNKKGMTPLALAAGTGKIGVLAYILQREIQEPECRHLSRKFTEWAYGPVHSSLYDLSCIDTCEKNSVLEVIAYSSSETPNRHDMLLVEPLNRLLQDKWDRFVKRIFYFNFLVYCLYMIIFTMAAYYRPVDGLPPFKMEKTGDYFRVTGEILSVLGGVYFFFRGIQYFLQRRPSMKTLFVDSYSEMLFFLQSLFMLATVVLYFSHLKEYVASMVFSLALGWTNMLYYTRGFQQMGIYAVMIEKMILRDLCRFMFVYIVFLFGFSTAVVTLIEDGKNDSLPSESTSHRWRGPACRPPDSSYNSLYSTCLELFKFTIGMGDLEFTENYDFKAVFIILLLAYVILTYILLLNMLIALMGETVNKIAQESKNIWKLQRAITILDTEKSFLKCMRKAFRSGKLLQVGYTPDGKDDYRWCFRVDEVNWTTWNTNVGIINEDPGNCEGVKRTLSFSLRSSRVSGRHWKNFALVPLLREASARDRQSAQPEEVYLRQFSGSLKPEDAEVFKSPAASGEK
Chain of TRPA1 (O75762 whole entry, species assumed): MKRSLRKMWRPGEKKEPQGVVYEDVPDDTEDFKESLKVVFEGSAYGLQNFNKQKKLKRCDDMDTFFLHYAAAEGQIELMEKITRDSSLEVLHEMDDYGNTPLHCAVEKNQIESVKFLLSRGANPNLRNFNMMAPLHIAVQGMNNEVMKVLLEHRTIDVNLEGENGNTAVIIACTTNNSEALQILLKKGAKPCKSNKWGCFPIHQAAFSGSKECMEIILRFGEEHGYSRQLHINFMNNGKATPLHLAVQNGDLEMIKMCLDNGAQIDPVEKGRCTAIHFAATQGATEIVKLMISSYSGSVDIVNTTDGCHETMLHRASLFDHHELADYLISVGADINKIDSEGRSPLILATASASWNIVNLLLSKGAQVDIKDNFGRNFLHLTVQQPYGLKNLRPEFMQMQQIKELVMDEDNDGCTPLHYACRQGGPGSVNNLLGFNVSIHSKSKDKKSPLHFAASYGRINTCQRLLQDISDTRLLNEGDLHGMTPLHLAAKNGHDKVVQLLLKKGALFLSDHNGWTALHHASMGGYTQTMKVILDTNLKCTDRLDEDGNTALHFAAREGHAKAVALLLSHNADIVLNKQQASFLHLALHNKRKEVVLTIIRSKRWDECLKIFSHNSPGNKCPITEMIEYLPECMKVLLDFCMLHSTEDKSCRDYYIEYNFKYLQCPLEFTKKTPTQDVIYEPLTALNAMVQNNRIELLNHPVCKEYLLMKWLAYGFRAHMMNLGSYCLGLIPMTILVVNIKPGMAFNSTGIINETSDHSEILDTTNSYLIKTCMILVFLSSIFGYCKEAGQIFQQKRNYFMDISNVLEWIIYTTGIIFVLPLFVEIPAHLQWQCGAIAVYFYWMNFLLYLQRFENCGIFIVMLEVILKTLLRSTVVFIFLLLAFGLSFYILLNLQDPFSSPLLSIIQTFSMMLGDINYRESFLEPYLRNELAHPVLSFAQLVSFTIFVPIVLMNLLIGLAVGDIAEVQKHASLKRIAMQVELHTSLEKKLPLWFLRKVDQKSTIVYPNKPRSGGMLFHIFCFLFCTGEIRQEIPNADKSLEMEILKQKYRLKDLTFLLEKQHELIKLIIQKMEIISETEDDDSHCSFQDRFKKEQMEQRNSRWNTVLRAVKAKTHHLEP

`Oc1cc2c(cc1O)CN(C(=S)NCCc1ccc(Cl)cc1)CCC2` [Capsazepine, capsazepine]: the “Effect on TRPV1” value at TRPV1 is reported as “Antagonist”.
Regarding `CC12CCC(CC1)C(C)(C)O2` [Eucalyptol, eucalyptol], the “Effect on TRPM8” value was “Agonist” on TRPM8 and “potent TRPM8 agonist” at TRPM8 (listed as eucalyptol).
Consider `CC1CCC(C(C)(C)O)C(O)C1` (stereo not drawn) [Cis- and trans-p-menthane-3,8-diol, p-menthane-3,8-diol], for which, at TRPM8, the “Effect on TRPM8” value is listed as “Agonist”.
With `S=C=NCc1ccccc1` [Benzyl isothiocyanate, benzyl isothiocyanate], the “Effect on TRPA1” value on TRPA1 is listed as “Agonist”.
With `CC(CC=O)CCCC(C)(C)O` (stereo not drawn) [Hydroxyl-citronellal, hydroxyl-citronellal], the “Effect on TRPM8” value on TRPM8 is “Agonist”.
With evodiamine, the “Effect on TRPV1” value at TRPV1 is given as “Agonist”.
Consider `CC12CCC(CC1=O)C2(C)C` (stereo not drawn) [Camphor, camphor], for which the “Effect on TRPV1” value at TRPV1 is “Agonist”. The “Effect on TRPV3” value on TRPV3 is on record as “nonspecific”. Besides, the “Effect on TRPA1” value at TRPA1 is recorded as “Antagonist”.
Consider `C=C(C)[C@@H]1CC[C@@H](C)C[C@H]1O` [Isopulegol, isopulegol], for which, on TRPM8, the “Effect on TRPM8” value is recorded as “Agonist”.
With `CN=C=S` [Methyl isothiocyanate, methyl isothiocyanate], the “Effect on TRPA1” value on TRPA1 is “Agonist”.
Consider `CC(C)[C@@H]1CC[C@@H](C)CC1=O` [Menthone, menthone], for which the “Effect on TRPM8” value is given as “Agonist” on TRPM8 and “potent TRPM8 agonist” on TRPM8 (listed as menthone).
Take `CC1(C)C[C@H]2C=C(C=O)[C@]3(C=O)C[C@]3(C)[C@H]2C1` [Isovelleral, isovelleral]: on TRPV1, the “Effect on TRPV1” value is on record as “Agonist”.
For `C=CC(C)(O)CCC=C(C)C` (stereo not drawn) [Linalool, linalool], the “Effect on TRPM8” value at TRPM8 is given as “Agonist”.
Consider `CC1(C)CCC[C@]2(C)[C@@H](C=O)C(C=O)=CC[C@@H]12` [Polygodial, polygodial], for which the “Effect on TRPV1” value on TRPV1 is recorded as “Agonist”.
Turning to `COc1ccc(CCN(C)CCCC(C#N)(c2ccc(OC)c(OC)c2)C(C)C)cc1OC` (stereo not drawn) [verapamil], the “change of transepithelial current” value in assay [1] (1 mmol·l^−1 added to solution containing ammonium) was “the current drops”.
As for `COC(=O)c1ccccc1O` [methyl salicylate], the “influence on ammonium-induced conductivity / transport across rumen epithelium (profile in words)” value in assay [1] is “inhibiting profile”. Moreover, in assay [1] (reduced from −25.44±1.8, n=4, not (yet) significant), the “transepithelial current after addition (maximum reduction)” value was −21.06±2.97 μA·cm^−2. Also, the results for the “Effect on TRPA1” value on TRPA1 and on TRPA1 (listed as Methyl salicilate) were “potent TRPA1 agonists” and “Agonist”, respectively.
For `C/C=C(/C)C(=O)O[C@H]1C(C)=C2[C@H]([C@@H]1OC(=O)CCCCCCC)[C@@](C)(OC(C)=O)C[C@H](OC(=O)CCC)[C@@]1(O)[C@H]2OC(=O)[C@@]1(C)O` [Thapsigargin, thapsigargin], at TRPV1, the “Effect on TRPV1” value was “Antagonist”.
Turning to `N` [NH4^+, ammonium], the “transepithelial current, MV” value in assay [1] (40 mM NH4^+ replacing NMDG+, n=37, NaCl before −2.43, after washout −2.68) is −25.73 μA · cm^−2. Also, in assay [1] (40 mM NH4^+ replacing NMDG+, n=37, NaCl median −3.60), the “transepithelial current, Median” value is listed as −22.32 μA · cm^−2.
For the molecule `C=C(C)[C@@H]1CCC(C)=C[C@H]1c1c(O)cc(CCCCC)cc1O` [Cannabidiol, cannabidiol], the “Effect on TRPV1” value at TRPV1 is given as “Agonist”.
For `CC(C)N=C=S` [Isopropyl isothiocyanate, isopropyl isothiocyanate], the “Effect on TRPA1” value at TRPA1 is on record as “Agonist”.
Consider `O=CC=Cc1ccccc1` [cinnamaldehyde], for which the “transepithelial current, MV” value in assay [1] (cinnamaldehyde (concentration not given) in 40 mM NH4^+, n=7, before −31.53, p = 0.313) is −28.39 μA · cm^−2. Besides, the “transepithelial current, Median” value in assay [1] (cinnamaldehyde in 40 mM NH4^+, n=7, before −26.52) was −24.03 μA · cm^−2. Also, the “influence on ammonium-induced conductivity / transport across rumen epithelium (profile in words)” value in assay [1] was “inhibiting profile”. The “Effect on TRPM8” value on TRPM8 was “Antagonist”. In addition, at TRPA1, the “Effect on TRPA1” value is “potent TRPA1 agonists; also recorded: Agonist”.
In the case of `COc1cc(CCC(C)=O)ccc1O` [Vanillylacetone, vanillylacetone], the “Effect on TRPV1” value at TRPV1 is on record as “Agonist”.
Consider `COc1cc(CNC(=O)CCCC/C=C/C(C)C)ccc1O` [capsaicin], for which, in assay [1], the “influence on ammonium-induced conductivity / transport across rumen epithelium (profile in words)” value is recorded as “significantly influenced”. Further, at TRPV1, the “Effect on TRPV1” value was “Agonist”.
For `CCO` [Ethanol], the “Effect on TRPM8” value at TRPM8 is “Antagonist”.
Regarding `C=CCN=C=S` [Allyl isothiocyanate, allyl isothiocyanate], the “Effect on TRPA1” value at TRPA1 is given as “Agonist”.
Take `O=C1NC(c2cccc([N+](=O)[O-])c2)=CCN1c1ccccc1O` [Icilin, icilin]: on TRPM8, the “Effect on TRPM8” value was “Agonist”.
As for `S=C=NCCc1ccccc1` [Phenylethyl isothiocyanate, phenylethyl isothiocyanate], at TRPA1, the “Effect on TRPA1” value is listed as “Agonist”.
On to `C=C(C)[C@@H]1CC=C(C)C(=O)C1` [L-carvone, 1-carvone], for which the “Effect on TRPM8” value at TRPM8 is listed as “Agonist”.
As to `Cc1ccc(C(C)C)cc1O` [Carvacrol, carvacrol], the “Effect on TRPV3” value at TRPV3 is listed as “Agonist”. Besides, the “Effect on TRPA1” value is recorded as “Agonist” at TRPA1 and “potent TRPA1 agonists” at TRPA1 (listed as carvacrol).
Turning to `C=CCc1ccc(O)c(OC)c1` [Eugenol, eugenol], the “Effect on TRPV1” value on TRPV1 is listed as “Agonist”. Besides, on TRPV3, the “Effect on TRPV3” value is given as “nonspecific”. The “Effect on TRPM8” value at TRPM8 is recorded as “Agonist”. Also, the “Effect on TRPA1” value is on record as “Agonist” at TRPA1 and “potent TRPA1 agonists” at TRPA1 (listed as eugenol).
As for `C=CCS[S+]([O-])CC=C` (stereo not drawn) [Allicin, allicin], the “Effect on TRPA1” value on TRPA1 is on record as “Agonist”.
As to `CC(C)=CCC/C(C)=C/CO` [Geraniol, geraniol], the “Effect on TRPM8” value at TRPM8 is recorded as “Agonist”; on TRPM8 (listed as geraniol), “potent TRPM8 agonist”.
In the case of `CCCCCCCC/C=C\CCCCCCCC(=O)NCc1ccc(O)c(OC)c1` [Olvanil, olvanil], the “Effect on TRPV1” value on TRPV1 is “Agonist”.
Turning to `CC1CCC(C(C)C)C(OC(=O)C(C)O)C1` (stereo not drawn) [Menthyl lactate, menthyl lactate], on TRPM8, the “Effect on TRPM8” value is “Agonist”.
For `C=C(C)[C@]12C[C@@H](C)[C@@]34O[C@](Cc5ccccc5)(O[C@@H]1[C@@H]3C=C(COC(=O)Cc1ccc(O)c(OC)c1)C[C@]1(O)C(=O)C(C)=C[C@@H]41)O2` [Resiniferatoxin, resiniferatoxin], the “Effect on TRPV1” value on TRPV1 is listed as “Agonist”.
